Test results: patent publication US20190388421A1, “NOVEL COMPOUNDS AND PHARMACEUTICAL COMPOSITIONS THEREOF FOR THE TREATMENT OF FIBROSIS” (Galapagos NV, priority 2016, published 2019)

Assays:
HFL-1 cells [1] = test: IL8 assay (S1P induced IL-8 production); type: cell-based; conditions: Homo sapiens, HFL1; S1P (1 μM) induced IL-8, HFL-1 cells, without HSA
Protocol: (§1) S1P is able to induce cytokines such as IL-8 in a process that is S1PR2 dependent (O'Sullivan et al, 2014; Bruennert et al, 2015). This assay is designed to test inhibitory activity of compounds on S1P induced IL-8 on HFL-1 cells, a human fetal lung fibroblast cell line.
Human Fetal Lung cells (HFL-1) are seeded in 96 well plates in growth medium (F12K+10% heat inactivated FBS+1% Pen/strep). After overnight incubation at 37° C., 5% CO2 cells are refreshed with starvation medium without HSA (F12K+1% FBS+1% Pen/strep). On day three, compounds are added (10 point serial dilution, 30 μM highest concentration, ⅓ dilution, 0.3% DMSO final) and plates are incubated for one hour at 37° C., 5% CO2. Subsequently S1P at 1 μM final concentration is added and plates are incubated for 16 to 24 hours at 37° C., 5% CO2 after which the supernatant was collected. IL-8 levels in the supernatant are determined with the IL-8 ELISA of R&D systems.

S1PR2 = target: T1, S1PR2 (Homo sapiens, UniProt O95136); test: GTP-γS binding assay ([35S]GTPγS, S1P at EC80, S1PR2 membranes); type: biochemical; conditions: membranes from stable cell line over expressing S1PR2, read-out: S1PR2 EC
T1 construct: expressed in transfected cells
Protocol: The following assay can be used for determination of S1PR2 activation. The [^35S] GTPγS assay measures the level of G protein activation following agonist occupation of a GPCR, by determining the binding of the non-hydrolysable analog [^35S] GTPγS to Gα subunits.
The assay is performed in a 96 well plate where the following reagents are added. First 50 μL compound is added into the assay plate, followed by addition of 20 μL S1P at EC80 concentration (concentration which gives 80% of the activity of S1PR2). Then, 30 μL of a mixture consisting of membranes-GTPγS-SpA beads is added [mixture consists of 2.5 μg/well membranes derived from stable cell line over expressing S1PR2 (membranes are pre-incubated with 1 μM GDP for 15 min at 4° C.), 0.1 nM [35S]GTPγS (Perkin Elmer, NEG030) and 0.5 mg/well PVT-WGA SpA beads (Perkin Elmer, RPNQ0001)]. All components are diluted in assay buffer containing 20 mM Tris pH 7.5; 10 mM MgCl2; 100 mM NaCl; 0.1% BSA FAF; 50 ug/ml saponin. After an incubation for 4 h at room temperature, plates are centrifuged at 2000 rpm during 20 min. Plates are read on a Topcount reader (Perkin Elmer) immediately after centrifugation (readout time, 1 min/well).

HFL-1 cells [2] = test: IL8 assay in the presence of Human Serum Albumin; type: cell-based; conditions: HFL1, S1P (5 μM) induced IL-8, HFL-1 cells, with 2% HSA, read-out: HSA IL8 EC50
Protocol: as §1
To evaluate the influence of plasma protein binding of Sip as well as compound, the S1P induced IL-8 levels were evaluated in presence of 2% Human Serum Albumin (HSA, equivalent to 40% human serum). By adding 2% HSA, which affects both the activity of the compounds as well as the S1P potency, the physiological condition are reproduced and the shift in potency expected under in vivo serum conditions can be measured.
Human Fetal Lung cells (HFL-1) are seeded in 96 well plates in growth medium (F12K+10% heat inactivated FBS+1% Pen/strep). After overnight incubation at 37° C., 5% CO2 cells are refreshed with starvation medium with HSA (F12K+1% FBS+1% Pen/strep+1.95% HSA). On day three, compounds are added (10 point serial dilution, 30 μM highest concentration, 1/3 dilution, 0.3% DMSO final) and plates are incubated for 1 h at 37° C., 5% CO2. Subsequently S1P at 5 μM final concentration is added and plates are incubated for 16 to 24 h at 37° C., 5% CO2 after which the supernatant was collected. IL-8 levels in the supernatant are determined with the IL-8 ELISA of R&D systems.

[3] = target: T2, human GPCR sphingosine 1-phosphate receptor 2 (S1PR2) (Homo sapiens, UniProt O95136); test: S1P2 antagonist assay (Ca2+ flux, S1P at EC80); type: cell-based; conditions: CHO-S1PR2 cells, highest concentration 20 μM
T2 construct: host or cells: CHO
Protocol: Triggering of S1PR2 by administration of Sphingosine-1-phosphate leads to a transient increase in intracellular Ca^2+. The Ca^2+ flux assays are measuring the release of Ca^2+ intracellularly by use of a Ca^2+ sensitive fluorescent dye. The assay is firstly run in agonist mode (incubation of compounds alone) to ensure that the Ca^2+ released measured is not caused by the test compound having an agonistic effect. Then the assay is continued in antagonist mode (Sphingosine-1-Phosphate added to incubated medium containing the test compounds).
CHO cells stably overexpressing human GPCR sphingosine 1-phosphate receptor 2 (CHO—S1PR2 Perkin Elmer; ES-594-A) are seeded from a frozen stock in 384 wells sterile microplates (50 μL; 7,500 cells/well) and are incubated overnight at 37° C. and 5% CO2. The next day cells are washed twice with starvation medium (F-12 Ham's medium containing 0.1% BSA (Fatty acid free: FAF)) and left in […] starvation medium for 1 h at 37° C., 5% CO2. After this starvation cells are incubated with […] buffer containing the Ca^2+-sensitive fluorescent dye (0.5 mg Fluo8+125 mg Allura Red in 100 ml of 1% DMSO, in HBSS+20 mM Hepes+5 mM probenecid). The cells are incubated for an additional 1 hour after which 10 μL compounds, diluted in HBSS buffer with 20 mM Hepes and 0.1% BSA (FAF), are added to the cells and intracellular Ca^2+ changes are immediately measured by reading fluorescence during 3 min (FDSS/μCELL reader). The ratio of the maximal fluorescence over the background fluorescence before compound injection is used to determine compound response.
(§2) After readout of the agonist activity, the plates are incubated for 15 min at 37° C. and 5% CO2. Then, cells are stimulated with 10 μL Sphingosine-1-Phosphate (S1P) (Avanti Polar lipids-860492P) at its EC80 concentration. Intracellular Ca^2+ changes are immediately measured by reading fluorescence during 3 min (FDSS/μCELL reader). The ratio of the maximal fluorescence over the background fluorescence before compound injection is used to determine compound response.
(§3) For EC50 determination, a 10 point dilution series of compounds starting from 23.3 μM and 20 μM highest final concentration for agonist and antagonist respectively, ⅓ dilution was performed.
(§4) The obtained ratio's for agonist and antagonist readout were normalized versus vehicle and EC100 of S1P as controls for agonist mode and versus vehicle and EC80 of S1P for antagonist mode. From these normalized data EC50 of the compounds are derived.

[4] = target: T3, human GPCR sphingosine 1-phosphate receptor 1 (S1PR1) (Homo sapiens, UniProt P21453); test: S1PR1 selectivity assay (Ca2+ flux, antagonist); type: cell-based; conditions: S1P1 antagonist EC50, CHO cells overexpressing human S1PR1 and Gq protein
T3 construct: host or cells: CHO
Protocol: as §2, §3, §4
(§5) To evaluate the selectivity of the compounds for S1PR2 over S1PR1 and S1PR5, a similar assay set up as described above for the S1PR2 calcium flux assays was performed: CHO cells stably overexpressing human GPCR sphingosine 1-phosphate receptor 1 and Gq protein (Euroscreen, FAST-0197A) or overexpressing human GPCR sphingosine 1-phosphate receptor 5 and Gq protein were used (Perkin Elmer, ES-593-A). In case of the S1PR5 assay triggering was done with an S1PR5 specific agonist instead of with S1P (Hobson et al., 2015).

[5] = target: T4, human GPCR sphingosine 1-phosphate receptor 5 (S1PR5) (Homo sapiens, UniProt Q9H228); test: S1PR5 selectivity assay (Ca2+ flux, antagonist, S1PR5 specific agonist trigger); type: cell-based; conditions: S1P5 antagonist EC50, CHO cells overexpressing human S1PR5 and Gq protein
T4 construct: host or cells: CHO
Protocol: as §2, §3, §4, §5

T4 sequence (Q9H228 whole entry): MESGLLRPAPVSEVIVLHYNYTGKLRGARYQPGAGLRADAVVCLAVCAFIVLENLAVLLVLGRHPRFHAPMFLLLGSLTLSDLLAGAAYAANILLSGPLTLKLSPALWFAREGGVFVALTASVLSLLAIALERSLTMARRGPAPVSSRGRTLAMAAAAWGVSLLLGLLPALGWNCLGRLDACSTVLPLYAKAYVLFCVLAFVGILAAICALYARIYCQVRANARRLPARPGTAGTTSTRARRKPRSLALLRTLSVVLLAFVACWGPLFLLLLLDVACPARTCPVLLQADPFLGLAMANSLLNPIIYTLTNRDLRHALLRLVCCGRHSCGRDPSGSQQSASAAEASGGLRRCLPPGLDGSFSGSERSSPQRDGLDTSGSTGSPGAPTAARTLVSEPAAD
T3 sequence (P21453 whole entry): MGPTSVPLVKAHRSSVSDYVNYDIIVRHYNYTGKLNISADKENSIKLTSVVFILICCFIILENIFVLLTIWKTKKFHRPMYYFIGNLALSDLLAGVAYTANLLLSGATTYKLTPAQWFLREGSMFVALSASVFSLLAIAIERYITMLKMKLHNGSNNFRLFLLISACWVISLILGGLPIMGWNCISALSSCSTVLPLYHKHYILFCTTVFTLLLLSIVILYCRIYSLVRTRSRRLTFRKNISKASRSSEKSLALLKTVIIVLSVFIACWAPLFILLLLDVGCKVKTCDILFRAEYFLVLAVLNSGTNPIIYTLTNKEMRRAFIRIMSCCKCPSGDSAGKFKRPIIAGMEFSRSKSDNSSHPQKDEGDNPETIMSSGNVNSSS
T1 sequence (O95136 whole entry): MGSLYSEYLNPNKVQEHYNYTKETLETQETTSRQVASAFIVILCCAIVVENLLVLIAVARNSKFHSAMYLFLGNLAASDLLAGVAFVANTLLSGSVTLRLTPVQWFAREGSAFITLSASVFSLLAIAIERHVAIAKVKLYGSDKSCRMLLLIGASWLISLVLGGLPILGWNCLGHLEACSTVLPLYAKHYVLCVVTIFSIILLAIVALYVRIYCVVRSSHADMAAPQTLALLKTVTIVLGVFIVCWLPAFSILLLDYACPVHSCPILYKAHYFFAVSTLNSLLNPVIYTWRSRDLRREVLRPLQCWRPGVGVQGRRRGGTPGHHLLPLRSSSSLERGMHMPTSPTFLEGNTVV
T2 sequence (O95136 whole entry): as above

Compound | EC50 (HFL-1 cells [1]) [µM] | EC50 (S1PR2) [µM] | IC50 (HFL-1 cells [2]) [µM] | EC50 [3] [µM] | EC50 [4] [µM] | EC50 [5] [µM]
Cc1cc(CNC(=O)Nc2cc(Cl)nc(OCCF)c2)nnc1-c1cn(C)nc1C(F)(F)F [Compound 16, 1-[2-chloro-6-(2-fluoroethoxy)-4-pyridyl]-3-[[5-methyl-6-[1-methyl-3-(trifluoromethyl)pyrazol-4-yl]pyridazin-3-yl]methyl]urea] | 0.0046 | 0.0629 | 0.0749 | 0.0108 |  | 
Cc1cc(CNC(=O)Nc2cc(Cl)nc(Cl)c2)nnc1-c1cn(C)nc1C(F)(F)F [Compound 21, 1-(2,6-dichloro-4-pyridyl)-3-[[5-methyl-6-[1-methyl-3-(trifluoromethyl)pyrazol-4-yl]pyridazin-3-yl]methyl]urea] | 0.0113 | 0.136 | 0.393 | 0.0173 |  | 
Cc1cc(CNC(=O)Nc2cc(OCC3CC(F)(F)C3)nc(C(F)(F)F)c2)nnc1-c1cn(C)nc1C(F)(F)F [Compound 42, 1-[2-[(3,3-difluorocyclo-butyl)methoxy]-6-(trifluoromethyl)-4-pyridyl]-3-[[5-methyl-6-[1-methyl-3-(trifluoromethyl)pyrazol-4-yl]pyridazin-3-yl]methyl]urea] | 0.0509 | 0.604 | 1.24 | 0.292 |  | 
CCOc1cc(NC(=O)NCc2cc(C)c(-c3cn(CC(C)O)nc3C(F)(F)F)nn2)cc(C(F)(F)F)n1 (stereo not shown) [Compound 56, 1-[2-ethoxy-6-(trifluoromethyl)-4-pyridyl]-3-[[6-[1-(2-hydroxypropyl)-3-(trifluoromethyl)pyrazol-4-yl]5-methyl-pyridazin-3-yl]methyl]urea] | 0.0046 | 0.129 | 0.0985 | 0.0112 |  | 
Cn1cc(-c2nnc(CNC(=O)Nc3cc(Cl)nc(OCC(F)F)c3)cc2C2CC2)c(C(F)(F)F)n1 [Compound 61, 1-[2-chloro-6-(2,2-difluoroethoxy)-4-pyridyl]-3-[[5-cyclopropyl-6-[1-methyl-3-(trifluoromethyl)pyrazol-4-yl]pyridazin-3-yl]methyl]urea] |  | 0.193 |  | 0.014 | 0.919 | 4.04
Cn1cc(-c2nnc(CNC(=O)Nc3cc(Cl)nc(OCC(F)F)c3)cc2N2CCOCC2)c(C(F)(F)F)n1 [Compound 62, 1-[2-chloro-6-(2,2-difluoroethoxy)-4-pyridyl]-3-[[6-[1-methyl-3-(trifluoromethyl)pyrazol-4-yl]-5-morpholino-pyridazin-3-yl]methyl]urea] |  | 2.37 |  | 3.13 | 0.345 | 11
CCOc1cc(NC(=O)NCc2nnc(-c3cn(C)nc3C(F)(F)F)c(C)c2C)cc(C(F)(F)F)n1 [Compound 66, 1-[[4,5-dimethyl-6-[1-methyl-3-(trifluoromethyl)pyrazol-4-yl]pyridazin-3-yl]methyl]-3-[2-ethoxy-6-(trifluoromethyl)-4-pyridyl]urea] | 0.996 |  | 29.9 | 4.25 |  | 
Cc1cc(CNC(=O)Nc2cc(OCC(=O)N(C)C)nc(C(F)(F)F)c2)nnc1-c1cn(C)nc1C(F)(F)F [Compound 67, N,N-dimethyl-2-[[4-[[5-methyl-6-[1-methyl-3-(trifluoromethyl)pyrazol-4-yl]pyridazin-3-yl]methyl-carbamoyla-mino]-6-(trifluoromethyl)-2-pyridyl]oxy]acetamide] | 2.18 | 28.7 | 9.95 |  |  | 
Cc1cn(-c2nnc(CNC(=O)Nc3cc(Cl)nc(OCC(F)F)c3)cc2C)c(C)n1 [Compound 70] |  | 0.904 |  | 0.904 | ≥ 19.8 | ≥ 19.8
CCOc1nc(C)cc(NC(=O)NCc2cc(C)c(-c3cn(C)nc3C(F)(F)F)nn2)c1C#N [Compound 77, 1-(3-cyano-2-ethoxy-6-methyl-4-pyridyl)-3-[[5-methyl-6-[1-methyl-3-(trifluoromethyl)pyrazol-4-yl]pyridazin-3-yl]methyl]urea] | 2.74 | 20 | 29.9 |  |  | 
